From US11413321B2, “Pharmaceutical composition for use in increasing hair, modifying scalp or skin, healing a wound, promoting osteogenesis, or modifying hair” (priority 2017, dated 2022)

Tests used:
Type in all cases: in vivo, Wistar rat
Details in all cases: 20 μL per location into rat dorsal part; vs control without administration; FIG. 15
[1] = tested on: Cxcr4; assay: Quantitative PCR of dorsal tissues after subcutaneous administration (Cxcr4)
Protocol: (§1) 3.) C—X—C motif chemokine receptor 4 (Cxcr4), Rattus norvegicus: mRNA 1,726 bp NM 022205.3 GI: 82617587 Next, a change in gene expression in tissues was examined. Three regions were set between the head and the tail of the dorsal part of a 12-week-old Wistar rat (male), and each region was divided between the left and the right of the backbone into two regions to set a total of six regions on the dorsal part. Milk or palmitic acid was injected in an amount of 20 μL per location at two locations in the vicinity of the center of each region. The distance between the two locations was 1 cm. The collected tissue fragments were frozen with liquid nitrogen, and stored at −80° C. […] Analysis of gene expression by quantitative PCR was performed in the following manner: Integrated DNA technologies, Inc (Skokie, Ill., USA) was requested to design and synthesize gene-specific primers and probes, and using PrimeTime Gene Expression Master Mix Reagent (Integrated DNA Technologies, Inc, Skokie, Ill., USA) and Rotor-Gene Q PCR Apparatus (QIAGEN GmbH, Hilden, Germany), PCR analysis was performed twice per gene per specimen to analyze the expression level of a target gene. […]

[2] = tested on: CD34; assay: Quantitative PCR of dorsal tissues after subcutaneous administration (CD34)
Protocol: as §1, with “5.) CD34,” for “3.) C—X—C motif chemokine receptor 4 (Cxcr4),”, “norvegicus: CD34 molecule (Cd34),” for “norvegicus:”, “1,161” for “1,726”, “001107202.2” for “022205.3”, “169790781” for “82617587”

[3] = tested on: Cxcl12; assay: Quantitative PCR of dorsal tissues after subcutaneous administration (Cxcl12)
Protocol: as §1, with “2.)” for “3.)”, “ligand 12 (Cxcl12), transcript variant 1,” for “receptor 4 (Cxcr4),”, “1,880” for “1,726”, “022177.3” for “022205.3”, “7649650” for “82617587”

CCCCCCCCCCCCCCCC(=O)O [palmitic acid]
expression level of Cxcr4 in tissues [1]: greatly increased
CD34 gene expression in tissues [2]: increase
expression level of Cxcl12 in tissues [3]: greatly increased
